Tests used:
[1] = tested on: AsPC-1 cells containing homozygous KRAS-G12D activating mutation (p-ERK); conditions: Homo sapiens, ASPC1, 2 h, read-out: KRAS G12D ASPC-1 IC50 (nM)
Procedure: Procedure for Cellular Phospho-ERK Assay, G12D
AsPC-1 cells (ATCC® CRL-1682™), containing homozygous KRAS-G12D activating mutation, were cultured in T150 flask in growth medium (RPMI medium 1640-GlutaMAX™—I (ThermoFisher Scientific 61870) containing 10% fetal bovine serum (ThermoFisher Scientific 10091148)). The cells were harvested in growth medium after TrypLE (ThermoFisher scientific 12604021) digestion and were seeded in a 384-well collagen coated cell culture plate (Corning 356702) at a density of 15,000 cells/well, and incubated at 37° C., 5% CO2 overnight. […] RPMI medium 1640-GlutaMAX™—I was added to the intermediate plate and the contents of the intermediate plate were then transferred to the 384-well collagen coated cell culture plate, which was incubated at 37° C., 5% CO2 for 2 hours. After removal of medium from the collagen coated cell culture plate, cells were lysed in lysis buffer from Alpha SureFire® Ultra™ Multiplex p-ERK and total ERK assay kit (PerkinElmer MPSU-PTERK) containing Halt™ Protease and Phosphatase inhibitor cocktail (ThermoFisher Scientific 78446) at room temperature with constant shaking at 300 rpm for 30 minutes. The cell lysates were then transferred to an OptiPlate-384 plate (PerkinElmer 6005620), and the phosphorylation of ERK (p-ERK) and total ERK levels were detected by Alpha SureFire® Ultra™ Multiplex p-ERK kit and total ERK assay kit (PerkinElmer MPSU-PTERK) following the manufacturer's protocol. Assay plates were read on a EnVision Multimode Plate Reader (PerkinElmer), and the ratio of p-ERK vs. total ERK in each well was used as the final readout. Dose response curves were analyzed using a 4-parameter logistic model to calculate IC50 values using Spotfire software.

[2] = tested on: NCI-H358 cells containing homozygous KRAS-G12C activating mutation (p-ERK); conditions: Homo sapiens, NCI-H358, 2 h, read-out: G12C H358 IC50 (nM)
Procedure: Procedure for Cellular Phospho-ERK Assay, G12C
NCI-H358 cells (ATCC® CRL-5807™), containing homozygous KRAS-G12C activating mutation, were cultured in T150 flask in growth medium (RPMI medium 1640-GlutaMAX™—I (ThermoFisher Scientific 61870) containing 10% fetal bovine serum (ThermoFisher Scientific 10091148)). The cells were harvested in growth medium after TrypLE (ThermoFisher scientific 12604021) digestion and were seeded in a 384-well collagen coated cell culture plate (Corning 356702) at a density of 15,000 cells/well, and incubated at 37° C., 5% CO2 overnight. […] RPMI medium 1640-GlutaMAX™—I was added to the intermediate plate and the contents of the intermediate plate were then transferred to the 384-well collagen coated cell culture plate, which was incubated at 37° C., 5% CO2 for 2 hours. After removal of medium from the collagen coated cell culture plate, cells were lysed in lysis buffer from Alpha SureFire® Ultra™ Multiplex p-ERK and total ERK assay kit (PerkinElmer MPSU-PTERK) containing Halt™ Protease and Phosphatase inhibitor cocktail (ThermoFisher Scientific 78446) at room temperature with constant shaking at 300 rpm for 30 minutes. The cell lysates were then transferred to an OptiPlate-384 plate (PerkinElmer 6005620), and the phosphorylation of ERK (p-ERK) and total ERK levels were detected by Alpha SureFire® Ultra™ Multiplex p-ERK kit and total ERK assay kit (PerkinElmer MPSU-PTERK) following the manufacturer's protocol. Assay plates were read on an EnVision Multimode Plate Reader (PerkinElmer), and the ratio of p-ERK vs. total ERK in each well was used as the final readout. Dose response curves were analyzed using a 4-parameter logistic model to calculate IC50 values using Spotfire software.
NRAS (SEQ ID NO: 5) = NRAS (SEQ ID NO: 5) (Homo sapiens, UniProt P01111); test: SOS-catalyzed guanine nucleotide exchange (GNE) assay, NRAS
Procedure: (§1) Specifically, the SOS-catalyzed nucleotide exchange assay utilizes a preformed time-resolved fluorescence resonance energy transfer (TR-FRET) complex containing a specific biotinylated RAS protein (KRAS-G12C/V/D, HRAS, NRAS; described above) with BODIPY-GDP, and Terbium-streptavidin. Test compounds are preincubated with this complex for 60 minutes.
(§2) To assemble the preformed TR-FRET complexes, each biotinylated RAS protein is diluted to 2 μM in an EDTA Buffer (20 mM HEPES, 50 mM sodium chloride, 10 mM EDTA, and 0.01% Tween) and incubated at room temperature for one hour. This mixture is then further diluted to 90 nM in an Assay Buffer (20 mM HEPES, 150 mM sodium chloride, 10 mM magnesium chloride, and 0.005% Tween) containing 15 nM of Terbium-Streptavidin (Invitrogen, catalog #PV3577) and 900 nM of BODIPY-GDP (Invitrogen, catalog #G22360) and incubated at room temperature for six hours. It should be noted that this preformed TR-FRET complex for each of the RAS proteins was made ahead of time, aliquoted and stored at −80° C. until the day of the experiment.
(§3) Once titrations are made, 10 nL of the diluted compounds is acoustically dispensed into a 384-well assay plate (Corning, catalog #3820) using an Echo 550 (Labcyte). Each well of the assay plate subsequently receives 3 μL of a specific 3× RAS preformed TR-FRET complex and 3 μL of Assay Buffer and is incubated at room temperature for 60 minutes (preincubation time). […] The final reaction in each well of 9 μL consists of 3 mM GTP, and the specific RAS and SOS proteins in the following concentrations: KRAS-G12C/SOS=3 nM/40 nM, KRAS-G12D/SOS=1 nM/40 nM, KRAS-G12V/SOS=1.25 nM/160 nM, HRAS/SOS=1.25 nM/40 nM, and NRAS/SOS=1.25 nM/40 nM.
(§4) The TR-FRET signal is measured on an Envision (PerkinElmer) plate reader: Excitation filter=340 nm; emission 1=495 nm; emission 2=520 nm; dichroic mirror=D400/D505; delay time=100 ms. The signal of each well is determined as the ratio of the emission at 520 nm to that at 495 nm. […] The apparent effect as a function of compound concentration is fit to a four-parameter logistic equation to calculate IC50 values using Spotfire software.
HRAS (SEQ ID NO: 4) = HRAS (SEQ ID NO: 4) (Homo sapiens, UniProt P01112); test: SOS-catalyzed guanine nucleotide exchange (GNE) assay, HRAS
Procedure: as §1, §2, §3, §4

[3] = molecular target: Recombinant KRAS-G12D (SEQ ID NO: 2) (Homo sapiens, UniProt P01116, G12D); test: SOS-catalyzed guanine nucleotide exchange (GNE) assay, KRAS-G12D
Procedure: as §1, §2, §3, §4

G13D = G13D (Homo sapiens, UniProt P01116, G13D); test: Guanine nucleotide exchange (GNE) assay, G13D; format: biochemical
Procedure: as §4

[4] = molecular target: Recombinant KRAS-G12V (SEQ ID NO: 3) (Homo sapiens, UniProt P01116, G12V); test: SOS-catalyzed guanine nucleotide exchange (GNE) assay, KRAS-G12V
Recombinant KRAS-G12V (SEQ ID NO: 3), sequence (P01116 with tags, fused parts or gaps isoform P01116-2 G12V): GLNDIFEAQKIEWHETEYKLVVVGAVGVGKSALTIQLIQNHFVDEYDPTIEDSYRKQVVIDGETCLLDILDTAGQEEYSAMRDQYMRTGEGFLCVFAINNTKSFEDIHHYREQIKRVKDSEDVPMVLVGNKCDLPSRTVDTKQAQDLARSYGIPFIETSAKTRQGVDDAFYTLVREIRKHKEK
Procedure: as §1, §2, §3, §4

Recombinant KRAS-G12D (SEQ ID NO: 2), sequence (P01116 with tags, fused parts or gaps isoform P01116-2 G12D): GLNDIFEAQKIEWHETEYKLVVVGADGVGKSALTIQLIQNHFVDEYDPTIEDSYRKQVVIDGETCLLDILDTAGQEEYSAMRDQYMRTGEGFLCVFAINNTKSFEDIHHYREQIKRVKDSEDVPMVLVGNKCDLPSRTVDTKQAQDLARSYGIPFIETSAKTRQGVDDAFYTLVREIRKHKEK
NRAS (SEQ ID NO: 5), sequence (P01111 with tags, fused parts or gaps): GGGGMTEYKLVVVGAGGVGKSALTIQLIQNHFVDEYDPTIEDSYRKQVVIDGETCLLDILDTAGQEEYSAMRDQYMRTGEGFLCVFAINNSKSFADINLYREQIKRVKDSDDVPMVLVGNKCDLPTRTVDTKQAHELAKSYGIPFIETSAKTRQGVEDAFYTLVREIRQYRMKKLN
G13D, sequence (P01116 1-188 isoform P01116-2 G13D): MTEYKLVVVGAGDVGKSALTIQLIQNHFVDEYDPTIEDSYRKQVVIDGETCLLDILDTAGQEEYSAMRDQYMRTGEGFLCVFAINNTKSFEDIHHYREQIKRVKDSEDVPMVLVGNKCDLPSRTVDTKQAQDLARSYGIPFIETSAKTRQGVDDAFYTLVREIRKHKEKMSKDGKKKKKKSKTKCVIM
HRAS (SEQ ID NO: 4), sequence (P01112 with tags, fused parts or gaps): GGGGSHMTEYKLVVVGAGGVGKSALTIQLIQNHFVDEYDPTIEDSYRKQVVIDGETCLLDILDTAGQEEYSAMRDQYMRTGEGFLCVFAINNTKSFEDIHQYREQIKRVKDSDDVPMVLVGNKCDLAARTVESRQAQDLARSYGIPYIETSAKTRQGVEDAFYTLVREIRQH

C#Cc1cccc2cc(O)cc(-c3c(Cl)cc4c(N5CCC[C@@](C)(O)C5)nc(OC[C@@]56CCCN5C[C@H](F)C6)nc4c3F)c12 [Ex-1, (3R)-1-(6-chloro-7-(8-ethynyl-3-hydroxvnaphthalen-1-yl)-8-fluoro-2-(((2R,7aS)-2-fluorotetrahydro-1H-pyrrolizin-7a(5H)-yl)methoxy)quinazolin-4-yl)-3-methylpiperidin-3-ol]
IC50 [1]: 70 nM | IC50 [2]: 41 nM | IC50 (NRAS (SEQ ID NO: 5)): > 9950 nM | IC50 (HRAS (SEQ ID NO: 4)): > 9950 nM

CN(C)CC1(COc2nc(N3CCCC(C)(O)C3)c3cc(F)c(-c4cc(O)cc5ccccc45)c(F)c3n2)CC1 (stereo not shown) [Ex-8, 1-(2-((1-((dimethylamino)methyl)cyclopropyl)methoxy)-6,8-difluoro-7-(3-hydroxynaphthalen-1-yl)quinazolin-4-yl)-3-methylpiperidin-3-ol]
IC50 (NRAS (SEQ ID NO: 5)): > 9950 nM | IC50 (HRAS (SEQ ID NO: 4)): > 9950 nM

CN(C)CC1(COc2nc(N3CCCC(O)CC3)c3cc(Cl)c(-c4ccc(F)c5sc(N)nc45)c(F)c3n2)CC1 (stereo not shown) [Ex-17, 1-(7-(2-amino-7-fluorobenzo[d]thiazol-4-yl)-6-chloro-2-((1-((dimethylamino)methyl)cyclopropyl)methoxy)-8-fluoroquinazolin-4-yl)azepan-4-ol]
IC50 [3]: 283 nM | IC50 (G13D): 341 nM | IC50 [4]: 237 nM | IC50 (NRAS (SEQ ID NO: 5)): > 9950 nM | IC50 (HRAS (SEQ ID NO: 4)): > 9950 nM

Cc1cc2[nH]ncc2c(-c2c(F)cc3c(N4CCOC[C@@](C)(O)C4)nc(OC[C@@]45CCCN4C[C@H](F)C5)nc3c2F)c1C(F)(F)F [Ex-41, (6S)-4-(6,8-difluoro-2-(((2R,7aS)-2-fluorotetrahydro-1H-pyrrolizin-7a(5H)-yl)methoxy)-7-(6-methyl-5-(trifluoromethyl)-1H-indazol-4-yl)quinazolin-4-yl)-6-methyl-1,4-oxazepan-6-ol]
IC50 [3]: 33 nM | IC50 (G13D): 48 nM | IC50 [1]: 285 nM | IC50 [4]: 60 nM | IC50 [2]: 203 nM | IC50 (NRAS (SEQ ID NO: 5)): > 11100 nM | IC50 (HRAS (SEQ ID NO: 4)): > 11100 nM

C#Cc1cccc2cc(O)cc(-c3c(F)cc4c(N5CCC[C@@](C)(O)C5)nc(OC[C@@]56CCCN5C[C@H](F)C6)nc4c3F)c12 [Ex-42, (3R)-1-(7-(8-ethynyl-3-hydroxvnaphthalen-1-yl)-6,8-difluoro-2-(((2R,7aS)-2-fluorotetrahydro-1H-pyrrolizin-7a(5H)-yl)methoxy)quinazolin-4-yl)-3-methylpiperidin-3-ol]
IC50 [3]: 3 nM | IC50 (G13D): 4 nM | IC50 [1]: 91 nM | IC50 [4]: 3 nM | IC50 [2]: 58 nM | IC50 (NRAS (SEQ ID NO: 5)): > 10000 nM | IC50 (HRAS (SEQ ID NO: 4)): > 10000 nM
